From patent US9434763B2, “Derivatives of pyridinone as inhibitors for tissue transglutaminase” (ZEDIRA GMBH, priority 2012, dated 2016) come the findings set out here.

The target in the assay is T1, His tagged recombinant human tissue transglutaminase (His6-rh-TG2) (Homo sapiens, UniProt P21980).
T1 construct: purchased Zedira T002
T1 sequence (P21980 1-687): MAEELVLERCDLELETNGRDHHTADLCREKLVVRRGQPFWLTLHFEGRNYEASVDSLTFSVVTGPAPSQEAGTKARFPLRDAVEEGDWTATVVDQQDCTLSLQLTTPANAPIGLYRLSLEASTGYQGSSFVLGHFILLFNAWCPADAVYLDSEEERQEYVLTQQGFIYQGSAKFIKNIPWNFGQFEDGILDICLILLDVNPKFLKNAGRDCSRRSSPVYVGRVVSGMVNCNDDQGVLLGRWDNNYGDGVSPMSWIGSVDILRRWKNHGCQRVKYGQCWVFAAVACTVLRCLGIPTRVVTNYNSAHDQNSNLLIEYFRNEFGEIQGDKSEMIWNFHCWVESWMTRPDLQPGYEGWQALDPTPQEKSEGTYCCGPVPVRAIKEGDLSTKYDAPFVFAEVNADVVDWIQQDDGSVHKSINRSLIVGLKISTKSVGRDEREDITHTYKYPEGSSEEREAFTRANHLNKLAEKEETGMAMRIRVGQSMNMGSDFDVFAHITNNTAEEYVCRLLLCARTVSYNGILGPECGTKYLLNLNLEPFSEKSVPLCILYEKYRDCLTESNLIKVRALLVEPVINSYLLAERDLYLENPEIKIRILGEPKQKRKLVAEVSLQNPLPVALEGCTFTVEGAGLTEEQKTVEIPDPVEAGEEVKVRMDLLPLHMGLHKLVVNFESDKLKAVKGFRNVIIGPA
As to the kind of experiment: Inactivation of human tissue transglutaminase, fluorescence assay with Abz-APE(CAD-DNP)QEA-OH. Format: biochemical. To be noted: substrate Abz-APE(CAD-DNP)QEA-OH, 37° C., pH=7.5. Here is the method:
General Method for Inactivation of Human Tissue Transglutaminase
250 μg lyophilized His tagged recombinant human tissue transglutaminase (His6-rh-TG2, Zedira product T002) are reconstituted by adding 150 μl water (resulting buffer 50 mM NaH2PO4, 150 mM NaCl, pH=8.0).
A 10 mM inhibitor stock solution in DMSO is prepared and is diluted with buffer (50 mM Tris-HCl, 10 mM CaCl2, 5 mM DTT, pH=7.5) each to the twentyfold of the concentration desired in the preparation (but at least 1/50 dilution resulting in a 2% DMSO concentration).
900 μl of an assay-solution consisting of 55.56 mM Tris, 11.11 mM CaCl2, 0.11% PEG8000, 5.56 mM DTT, 5.56 mM glycine methyl ester and 50 μM Abz-APE(CAD-DNP)QEA-OH, (Zedira product A102; patent No.: EP 1781807B1), pH=7.5 are added to a cuvette and heated in a measuring cell of a spectrophotometer to 37° C. 50 μl of the particular inhibitor solution are added to this solution (resulting in a concentration of less than 0.2% DMSO in the mixture).
7 μl of the transglutaminase solution reconstituted above are diluted with 51 μl buffer (50 mM Tris, 100 mM NaCl, 5 mM DTT, pH=7.5). 50 μl of this enzyme solution (10 μg His6-rhTG2) are added to the assay-solution containing the particular inhibitor concentration. It is incubated 5 min at 37° C. before measuring starts (λexc=313 nm and λem=418 nm, t=15 to 30 min).
The evaluation of the resulting enzyme activity is done using the slope of the straight line obtained by the increase in fluorescence.
To determine the non-inhibited enzyme activity, DMSO instead of inhibitor stock solution is used. IC50 values are determined by plotting the resulting enzyme activity against the logarithm of the inhibitor concentration. IC50 is defined as the concentration of inhibitor resulting in 50% of enzyme activity.
Regarding `CCOC(=O)/C=C/CC[C@H](NC(=O)CCC(=O)O)C(=O)Nc1cccn(CC(=O)N[C@@H](CC(C)(C)C)C(=O)OC)c1=O` [A41, 4-((S,E)-7-Ethoxy-1-(1-(2-((S)-1-methoxy-4,4-dimethyl-1-oxopentan-2-ylamino)-2-oxoethyl)-2-oxo-1,2-dihydropyridin-3-ylamino)-1,7-dioxohept-5-en-2-ylamino)-4-oxobutanoic acid], the IC50 (as a rule, the midpoint of a concentration-inhibition curve) is 0.166 µM.
As to `CCOC(=O)/C=C/CC[C@H](NC(=O)c1ccsc1)C(=O)Nc1cccn(CC(=O)NCCC(C)C)c1=O` [A12, (S,E)-Ethyl 7-(1-(2-(isopentylamino)-2-oxoethyl)-2-oxo-1,2-dihydropyridin-3-ylamino)-7-oxo-6-(thiophene-3-carboxamido)hept-2-enoate], the half-maximal inhibitory concentration (IC50) amounted to 0.084 µM.
For the compound `CCOC(=O)/C=C/CC[C@H](NC(=O)c1ccoc1)C(=O)Nc1cccn(CC(=O)NCCC(C)C)c1=O` [A11, (S,E)-Ethyl 6-(furan-3-carboxamido)-7-(1-(2-(isopentylamino)-2-oxoethyl)-2-oxo-1,2-dihydropyridin-3-ylamino)-7-oxohept-2-enoate], the half-inhibitory concentration (IC50) worked out at 0.104 µM.
For `CCOC(=O)/C=C/CC[C@H](NC(=O)OCc1ccccc1)C(=O)Nc1ccc(C)n(CC(=O)NCCC(C)C)c1=O` [A2, (S,E)-Ethyl 6-(benzyloxycarbonylamino)-7-(1-(2-(isopentylamino)-2-oxoethyl)-6-methyl-2-oxo-1,2-dihydropyridin-3-ylamino)-7-oxohept-2-enoate], the 50% inhibitory concentration (IC50) came out at 0.1 µM.
With `CCOC(=O)/C=C/CC[C@H](NC(=O)c1ccc2c(c1)OCCN2C)C(=O)Nc1cccn(CC(=O)NCCC(C)C)c1=O` [A21, (S,E)-Ethyl 7-(1-(2-(isopentylamino)-2-oxoethyl)-2-oxo-1,2-dihydropyridin-3-ylamino)-6-(4-methyl-3,4-dihydro-2H-benzo[b][1,4]oxazine-7-carboxamido)-7-oxohept-2-enoate], the concentration for half-maximal inhibition (IC50) was found to be 0.111 µM.
Take `CCOC(=O)/C=C/CC[C@H](NS(=O)(=O)Cc1ccc(Cl)cc1)C(=O)Nc1cccn(CC(=O)NCCC(C)C)c1=O` [A9, (S,E)-ethyl 6-((4-chlorophenyl)methylsulfonamido)-7-(1-(2-(isopentylamino)-2-oxoethyl)-2-oxo-1,2-dihydropyridin-3-ylamino)-7-oxohept-2-enoate]: the IC50 amounted to 0.708 µM.
In the case of `CCOC(=O)/C=C/CC[C@H](NC(=O)CCC(=O)O)C(=O)Nc1cccn(CC(=O)NCCC(C)(C)C)c1=O` [A38, (S,E)-4-(1-(1-(2-(3,3-Dimethylbutylamino)-2-oxoethyl)-2-oxo-1,2-dihydropyridin-3-ylamino)-7-ethoxy-1,7-dioxohept-5-en-2-ylamino)-4-oxobutanoic acid], the IC50 was found to be 0.175 µM.
On to `CC(=O)N[C@@H](CC/C=C/C(=O)OC(C)C)C(=O)Nc1cccn(CC(=O)NCCC(C)C)c1=O` [A6, (S,E)-isopropyl 6-acetamido-7-(1-(2-(isopentylamino)-2-oxoethyl)-2-oxo-1,2-dihydropyridin-3-ylamino)-7-oxohept-2-enoate], for which the IC50 turned out to be 0.532 µM.
Regarding `CCOC(=O)/C=C/CC[C@H](NC(=O)CCC(=O)O)C(=O)Nc1cccn(CC(=O)N2CCC(C(F)(F)F)CC2)c1=O` [A45, (S,E)-4-(7-Ethoxy-1,7-dioxo-1-(2-oxo-1-(2-oxo-2-(4-(trifluoromethyl)piperidin-1-yl)ethyl)-1,2-dihydropyridin-3-ylamino)hept-5-en-2-ylamino)-4-oxobutanoic acid], the half-inhibitory concentration (IC50) was found to be 1.23 µM.
Regarding `CCOC(=O)/C=C/CC[C@H](NC(=O)c1cccnc1)C(=O)Nc1cccn(CC(=O)NCCC(C)C)c1=O` [A16, (S,E)-Ethyl 7-(1-(2-(isopentylamino)-2-oxoethyl)-2-oxo-1,2-dihydropyridin-3-ylamino)-6-(nicotinamido)-7-oxohept-2-enoate], the IC50 stood at 0.104 µM.
As to `CCOC(=O)/C=C/CC[C@H](NC(=O)CCC(=O)O)C(=O)Nc1cccn(CC(=O)N[C@H](CC(C)C)C(=O)OC)c1=O` [A34, 4-((S,E)-7-Ethoxy-1-(1-(2-((R)-1-methoxy-4-methyl-1-oxopentan-2-ylamino)-2-oxoethyl)-2-oxo-1,2-dihydropyridin-3-ylamino)-1,7-dioxohept-5-en-2-ylamino)-4-oxobutanoic acid], the IC50 was found to be 0.64 µM.
As to `CCOC(=O)/C=C/CC[C@H](NC(C)=O)C(=O)Nc1cccn(CC(=O)NCC2CCN(CC)CC2)c1=O` [A48, (S,E)-Ethyl 6-acetamido-7-(1-(2-((1-ethylpiperidin-4-yl)methylamino)-2-oxoethyl)-2-oxo-1,2-dihydropyridin-3-ylamino)-7-oxohept-2-enoate], the IC50 stood at 1.7 µM.
As to `COC(=O)/C=C/CC[C@H](NC(C)=O)C(=O)Nc1cccn(CC(=O)N2CCCC(C(F)(F)F)C2)c1=O` (stereo partly drawn) [A66, (6S,E)-Methyl 6-acetamido-7-oxo-7-(2-oxo-1-(2-oxo-2-(3-(trifluoromethyl)piperidin-1-yl)ethyl)-1,2-dihydropyridin-3-ylamino)hept-2-enoate], the IC50 turned out to be 0.31 µM.
As for `CCC(CC)CNC(=O)Cn1cccc(NC(=O)[C@H](CC/C=C/C(=O)OC)NC(=O)CN)c1=O` [A69, (S,E)-Methyl 6-(2-aminoacetamido)-7-(1-(2-(2-ethybutylamino)-2-oxoethyl)-2-oxo-1,2-dihydropyridin-3-ylamino)-7-oxohept-2-enoate 2,2,2-trifluoroacetate], the IC50 is 0.071 µM.
As for `CCOC(=O)/C=C/CC[C@H](NC(=O)CCC(=O)O)C(=O)Nc1cccn(CC(=O)NCCC(CC)CC)c1=O` [A43, (S,E)-4-(7-Ethoxy-1-(1-(2-(3-ethylpentylamino)-2-oxoethyl)-2-oxo-1,2-dihydropyridin-3-ylamino)-1,7-dioxohept-5-en-2-ylamino)-4-oxobutanoic acid], the IC50 stood at 0.145 µM.
